Test results reported in patent US20240269238A1, “Therapeutic Regimens and Methods for Reducing Body Weight in a Subject with Fatty Liver Disease using a GLP-1R and GCGR Agonist” (Spitfire Pharma LLC, priority 2022, published 2024).

Legend:
[1] = tested on: alanine aminotransferase (ALT); assay: Phase 1 12-week NAFLD study (Example 1): serum ALT; assay type: in vivo, human; settings: for ALT reduction: week 12; for decline in serum ALT levels: subjects with baseline serum ALT above 30 IU/L, 12 weeks
Excerpt: Provided herein is disclosure of a Phase 1, multicenter, randomized, double-blind, placebo-controlled study to assess the effects of Pemvidutide (also termed herein as ALT-801), the safety of Pemvidutide and effects on hepatic fat fraction, anthropometric parameters, lipid metabolism, inflammatory markers and fibrosis markers in diabetic and non-diabetic (type 2 diabetes) overweight and obese (BMI 28.0 kg/m^2) subjects with NAFLD. This study was designed to assess changes in hepatic fat fraction by MRI-PDFF (magnetic resonance imaging-proton density fat fraction) in diabetic and non-diabetic overweight and obese subjects with NAFLD after 12 weeks of ALT-801 treatment. The trial was conducted without adjunctive diet and exercise interventions. The study assessed changes in body weight, lipid metabolism, metabolic markers, and inflammatory markers and safety and tolerability of ALT-801 after 12 weeks of treatment. Subjects were stratified for the presence or absence of diabetes at baseline. Fibroscan and cT1 assessments evaluated changes in liver inflammatory and fibrotic activity at the end of 12 weeks of treatment.
The study, described in this example, was carried out in 94 subjects overweight and obese (body mass index [BMI] ≥28.0 kg/m^2) Type 2 diabetic and non-diabetic subjects with nonalcoholic fatty liver disease (NAFLD) over about 4.5 months, including up to a 35-day screening period, and 85-day treatment period and a 25-day follow-up period, with treatment with ALT-801 (a composition comprising SEQ ID NO.: 1, “study medication”) or placebo administered by subcutaneous (SC) injection once weekly for up to twelve (12) doses.
The safety objective of this study was to assess the safety and tolerability of ALT-801 in 18-65 years old subjects with NAFLD (NAFLD without significant fibrosis, defined as FibroScan® controlled attenuation parameter (CAP) ≥280 dB/m and liver stiffness measurement (LSM)<10 kPa (i.e., indicating the absence of significant fibrosis), magnetic resonance imaging derived proton density fat fraction (MRI-PDFF) ≥10%), hemoglobin Alc (HbAlc) of less than 9.5%, and alanine aminotransferase (ALT) or aspartate aminotransferase (AST) values of ≤[…]. The pharmacodynamic (PD) objectives of this study were to evaluate the effects of ALT-801 on hepatic fat fraction, anthropometric parameters, lipid metabolism, metabolic markers, inflammatory markers, fibrosis markers, and lipotoxicity markers. The pharmacokinetic (PK) objectives of this study were to evaluate the effects of ALT-801 and metformin exposure (drug interactions) on the subjects (e.g., ALT-801 and metformin concentrations in blood over time).
After providing informed consent, subjects underwent a screening period of up to 35 days. Subjects were instructed on how to maintain their normal diets, alcohol consumption and physical activities and not to start any new diets, supplements, or exercise programs at any time while participating in the study. Counseling was provided on diet and exercise on the Day 1 visit and reinforced at subsequent visits. Study subjects were randomized 1:1:1:1 to one of the following treatment arms: 1) ALT-8011.2 mg SC once weekly for 12 weeks; 2) ALT-8011.8 mg SC once weekly for 12 weeks; 3) ALT-801 0.6 mg SC at week 1, 1.2 mg SC at week 2, 1.8 mg SC once weekly for 2 weeks (weeks 3 and 4), and 2.4 mg SC once weekly for weeks 5 through 12; or, 4) placebo SC once weekly for 12 weeks. Subjects were stratified by presence or absence of diabetes at baseline. Subjects in the treatment arm with a final therapeutic dose of 2.4 mg underwent a rapid 4-week dose escalation to improve tolerability and reduce the possibility of adverse events. […] See FIG. 7, second 2.4 mg column as compared to the first 2.4 mg column (this study). See WO 2022/125598. […]

liver fat content = assay: Phase 1b 24-week NAFLD study (Example 3): liver fat content and liver volume by MRI-PDFF; assay type: in vivo, human
Excerpt: Provided herein is disclosure of a 12-week extension study of the study provided in Example 1, providing a 24-week a Phase 1b, randomized, double-blind, placebo-controlled study to assess the effects of pemvidutide (also termed herein as ALT-801), the safety of pemvidutide and effects on weight loss, hepatic fat fraction, anthropometric parameters, lipid metabolism, as well as inflammatory, fibrosis and other markers in diabetic and non-diabetic (type 2 diabetes) overweight and obese (BMI≥28.0 kg/m^2) subjects with NAFLD (defined as liver fat content (LFC) by MRI-PDFF ≥10%; absence of significant fibrosis, defined as FibroScan® LSM ≤10 kPa), alanine aminotransferase (ALT) and aspartate aminotransferase (AST) laboratory values of ≤75 IU/L and HbA1c <9.5. Men and women aged 18-65 years were studied. Diabetic subjects were defined as those that have undergone stable dose (≥3 months) metformin or SLGT-2 therapy and no use of insulin, sulfonylureas, DPP-4, GLP-1 treatment; Ninety-four (94) subjects were enrolled in the initial 12-week Phase 1b NAFLD trial and 83 subjects who completed were invited to receive a total of 12 additional weeks of blinded treatment. Of those subjects, 66 consented to rollover, of which 64 were eligible to participate.
The primary endpoint of this study was a reduction in liver fat content (LFC) by MRI-PDFF at Week 24 compared to Week 0 (zero). Key secondary endpoints include percent (%) weight loss at Week 24 compared to Week 0 (zero), and liver inflammation by alanine aminotransferase (ALT) levels and corrected T1 (cT1) imaging at Week 24 as compared to Week 0 (zero). Adverse events (AEs), including serious and severe AEs, AEs leading to discontinuation, GI tolerability, vital signs, and glycemic control including fasting glucose and HbA1c levels were also measured.

SMILES: CC[C@H](C)[C@H](NC(=O)[C@H](Cc1ccccc1)NC(=O)[C@H](CCC(=O)O)NC(=O)[C@@H]1CCCCNC(=O)CC[C@H](NC(=O)[C@H](CC(=O)O)NC(=O)[C@H](CC(C)C)NC(=O)[C@H](Cc2ccc(O)cc2)NC(=O)[C@H](CCCCN)NC(=O)[C@H](CO)NC(=O)[C@H](Cc2ccc(O)cc2)NC(=O)[C@H](CC(=O)O)NC(=O)[C@H](CO)NC(=O)[C@@H](NC(=O)[C@H](Cc2ccccc2)NC(=O)[C@@H](NC(=O)CNC(=O)[C@H](CCC(N)=O)NC(=O)C(C)(C)NC(=O)[C@@H](N)Cc2c[nH]cn2)[C@@H](C)O)[C@H](C)O)C(=O)N[C@@H](CCCCNC(=O)C2O[C@@H](OCCCCCCCCCCCCCCCCCC(=O)O)C(O)C(O)[C@@H]2O)C(=O)N[C@@H](C)C(=O)N[C@@H](C)C(=O)N1)C(=O)N[C@@H](CCC(N)=O)C(=O)N[C@@H](Cc1c[nH]c2ccccc12)C(=O)N[C@@H](CC(C)C)C(=O)N[C@@H](CC(C)C)C(=O)N[C@@H](CCC(N)=O)C(=O)N[C@H](C(N)=O)[C@@H](C)O (some centres unmarked) [ALT-801, Pemvidutide]
- ALT reduction ([1]; all subjects, 1.2 mg): −11.2%
- ALT reduction ([1]; all subjects, 1.8 mg): −13.8%
- ALT reduction ([1]; all subjects, 'the 1.8 mg dose' as printed (second mention)): −13.6%
- ALT reduction ([1]; subjects with baseline ALT >=30 IU/L, 1.2 mg): −17.8%
- ALT reduction ([1]; subjects with baseline ALT >=30 IU/L, 1.8 mg): −20.8%
- ALT reduction ([1]; subjects with baseline ALT >=30 IU/L, 2.4 mg): −27%
- decline in serum ALT levels ([1]; 2.4 mg dose cohort): 27.0 IU/L
- decline in serum ALT levels ([1]; all dose levels): more than 17 IU/L
- mean absolute reduction in liver fat (MRI-PDFF) (liver fat content; 1.2 mg per week, week 24): 11.2%
- mean relative reduction in liver fat (MRI-PDFF) (liver fat content; 1.2 mg per week, week 24): 56.3%
- liver fat of an exemplary subject (MRI-PDFF) (liver fat content; 1.8 mg dose, Week 24, 32.3% at baseline): 1.7%
- mean absolute reduction in liver fat (MRI-PDFF) (liver fat content; 1.8 mg per week, week 24): 17%
- mean relative reduction in liver fat (MRI-PDFF) (liver fat content; 1.8 mg per week, week 24): 75.2%
- proportion of subjects with normalization (<=5%) in liver fat content (liver fat content; 1.8 mg, week 24): 53.8%
- mean absolute reduction in liver fat (MRI-PDFF) (liver fat content; 2.4 mg per week, week 24): 15.6%
- mean relative reduction in liver fat (MRI-PDFF) (liver fat content; 2.4 mg per week, week 24): 76.4%
- proportion of subjects with normalization (<=5%) in liver fat content (liver fat content; 2.4 mg, week 24): 45.3%
- relative liver fat reductions (study conclusion) (liver fat content; 24 weeks): greater than 75%
- liver volume (MRI-PDFF) (liver fat content; all doses, week 24): robust reduction in liver volume
- percentage of subjects achieving at least 30% and 50% reduction in liver fat content vs placebo (liver fat content; all doses, week 24): highly significant
